Laboratory results as given in US8202987B2, “Method of obtaining conformational polymorph of sucrose” (National Central University, priority 2007, dated 2012).

Assay type: physicochemical
Protocol: Then an anti-solvent method is used at 60° C. to add methanol into the saturated sucrose solution for obtaining the new sucrose through re-crystallization. The new sucrose obtained has a melting point at 150° C., which is lower then 190° C. for the original sucrose. […] Therefore, the present invention contributes to sugar industry, drug industry and food industry.
Conclusively, a novel conformational polymorph of sucrose is obtained according to the present invention.

| Structure (SMILES) | solubility relative to the original sucrose | stability relative to the original sucrose | solubility |
| --- | --- | --- | --- |
| OC[C@H]1O[C@@](CO)(O[C@H]2O[C@H](CO)[C@@H](O)[C@H](O)[C@H]2O)[C@@H](O)[C@@H]1O [new sucrose, sucrose] | lower solubility than the original sucrose | higher stability than the original sucrose |  |
| OC[C@H]1O[C@@](CO)(O[C@H]2O[C@H](CO)[C@@H](O)[C@H](O)[C@H]2O)[C@@H](O)[C@@H]1O [sucrose] |  |  | 2873 milligrams sucrose per milliliter water |
